According to US10526316B2, “Quinoxaline and pyridopyrazine derivatives as PI3Kβ inhibitors” (Janssen Pharmaceutica NV, priority 2015, dated 2020):
Read-outs that look alike come from different tables or passages of the source.

Experiments:
[1] = target: T1, PI3Kβ (Homo sapiens, UniProt P42338); test: Enzyme binding assay (KINOMEscan, DiscoveRx); details: PIK3Cβ_h, read-out: Kd PIK3Cβ_h
T1 construct: purchased DiscoveRx Corporation, San Diego (contract service, KINOMEscan)
How it was run: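 Reported Kd (nM) reflects inhibitor binding to the kinase, as measured by KINOMEscan technology.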

[2] = target: T2, PI3Kδ (Homo sapiens, UniProt O00329); test: Enzyme binding assay (KINOMEscan, DiscoveRx); details: PIK3Cδ_h
T2 construct: purchased DiscoveRx Corporation, San Diego (contract service, KINOMEscan)
T2 sequence (O00329 1-1044): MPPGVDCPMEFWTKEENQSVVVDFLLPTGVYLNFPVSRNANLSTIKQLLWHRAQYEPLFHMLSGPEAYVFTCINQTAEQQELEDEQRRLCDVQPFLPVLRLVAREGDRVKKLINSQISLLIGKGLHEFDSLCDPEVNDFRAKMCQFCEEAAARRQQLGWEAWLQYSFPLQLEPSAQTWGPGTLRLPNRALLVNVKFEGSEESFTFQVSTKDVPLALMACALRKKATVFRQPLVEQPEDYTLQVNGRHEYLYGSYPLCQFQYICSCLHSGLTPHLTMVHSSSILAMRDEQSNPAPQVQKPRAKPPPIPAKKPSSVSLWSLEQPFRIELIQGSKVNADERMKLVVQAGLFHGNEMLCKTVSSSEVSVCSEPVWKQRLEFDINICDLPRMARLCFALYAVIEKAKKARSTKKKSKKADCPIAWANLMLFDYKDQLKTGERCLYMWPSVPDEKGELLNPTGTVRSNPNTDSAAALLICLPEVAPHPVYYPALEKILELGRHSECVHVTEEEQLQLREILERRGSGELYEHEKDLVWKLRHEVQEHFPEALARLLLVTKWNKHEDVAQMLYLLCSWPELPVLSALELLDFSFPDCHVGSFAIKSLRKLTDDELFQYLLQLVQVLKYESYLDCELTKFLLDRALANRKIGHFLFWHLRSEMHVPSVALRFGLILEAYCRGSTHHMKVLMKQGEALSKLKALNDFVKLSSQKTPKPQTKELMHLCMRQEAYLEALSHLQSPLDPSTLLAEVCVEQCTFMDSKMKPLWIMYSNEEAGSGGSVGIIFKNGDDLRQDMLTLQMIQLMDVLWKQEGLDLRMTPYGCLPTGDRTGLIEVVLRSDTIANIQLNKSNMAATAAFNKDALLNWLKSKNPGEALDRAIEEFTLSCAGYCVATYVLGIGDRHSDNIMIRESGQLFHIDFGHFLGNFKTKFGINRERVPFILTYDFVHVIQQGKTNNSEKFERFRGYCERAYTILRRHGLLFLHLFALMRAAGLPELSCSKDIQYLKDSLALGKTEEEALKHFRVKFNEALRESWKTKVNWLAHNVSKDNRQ
How it was run: (§1)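 Kinase binding measured via KINOMEscan, reported as affinity.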

[3] = target: T3, kinase enzymes (Homo sapiens, UniProt P42336); test: Enzyme binding assay (KINOMEscan, DiscoveRx), further kinases of Table A; details: PIK3Cα_h
T3 construct: purchased DiscoveRx Corporation, San Diego (contract service, KINOMEscan)
How it was run: as §1

[4] = target: T4, kinase enzymes (Homo sapiens, UniProt P42345); test: as above; details: MTOR_h
T4 construct: purchased DiscoveRx Corporation, San Diego (contract service, KINOMEscan)
How it was run: as §1

[5] = target: T5, kinase enzymes (Homo sapiens, UniProt P48736); test: as above; details: PIK3Cγ_h
T5 construct: purchased DiscoveRx Corporation, San Diego (contract service, KINOMEscan)
How it was run: as §1

[6] = tested on: Akt phosphorylated at Ser473 in PC-3 cells; test: Cellular assay: phosphorylation of Akt at Ser473 in PC-3 cells (MSD ELISA); type: cell-based; details: PC-3 cells, 60 min compound incubation, MSD ELISA, read-out: IC50 pAkt_S473
How it was run: (§2)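 After lysis of treated cells (60 min, 37° C, 0.3% DMSO), phospho-Akt levels were measured by MSD electrochemiluminescence ELISA. Potency was derived from concentration-response curves fitted over five concentrations.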

[7] = tested on: Akt phosphorylated at Thr308 in PC-3 cells; test: Cellular assay: phosphorylation of Akt at Thr308 in PC-3 cells (MSD ELISA); type: cell-based; details: PC-3 cells, 60 min compound incubation, MSD ELISA, read-out: IC50 pAkt_Thr308
How it was run: as §2

T5 sequence (P48736 whole entry): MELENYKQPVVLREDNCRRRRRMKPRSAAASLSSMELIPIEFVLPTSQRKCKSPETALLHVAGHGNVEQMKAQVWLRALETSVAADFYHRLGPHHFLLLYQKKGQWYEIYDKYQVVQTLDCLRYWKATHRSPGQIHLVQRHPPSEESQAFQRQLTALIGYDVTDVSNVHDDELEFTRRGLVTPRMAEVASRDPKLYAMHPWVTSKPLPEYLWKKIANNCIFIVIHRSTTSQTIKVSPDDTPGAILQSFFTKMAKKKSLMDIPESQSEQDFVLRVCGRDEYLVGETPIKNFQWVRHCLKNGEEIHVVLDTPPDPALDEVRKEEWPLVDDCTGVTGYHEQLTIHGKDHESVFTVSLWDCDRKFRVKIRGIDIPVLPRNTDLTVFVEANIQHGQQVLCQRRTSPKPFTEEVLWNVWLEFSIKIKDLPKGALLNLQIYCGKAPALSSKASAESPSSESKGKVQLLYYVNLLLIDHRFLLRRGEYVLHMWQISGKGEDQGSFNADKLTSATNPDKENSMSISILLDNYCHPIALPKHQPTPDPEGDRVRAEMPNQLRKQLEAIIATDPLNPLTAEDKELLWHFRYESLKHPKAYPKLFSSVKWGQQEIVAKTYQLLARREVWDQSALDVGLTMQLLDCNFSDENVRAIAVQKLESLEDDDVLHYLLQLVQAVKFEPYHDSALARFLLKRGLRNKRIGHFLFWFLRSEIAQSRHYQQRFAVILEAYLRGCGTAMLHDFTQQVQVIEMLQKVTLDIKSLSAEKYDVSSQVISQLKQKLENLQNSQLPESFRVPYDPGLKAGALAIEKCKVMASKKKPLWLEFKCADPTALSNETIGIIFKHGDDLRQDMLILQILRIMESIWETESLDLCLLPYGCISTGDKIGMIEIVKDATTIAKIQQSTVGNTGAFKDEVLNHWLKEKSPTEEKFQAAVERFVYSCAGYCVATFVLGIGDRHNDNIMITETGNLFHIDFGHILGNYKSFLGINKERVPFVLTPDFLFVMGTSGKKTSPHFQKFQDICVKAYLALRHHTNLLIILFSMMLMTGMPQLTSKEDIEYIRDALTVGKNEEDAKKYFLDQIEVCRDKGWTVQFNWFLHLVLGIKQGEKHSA
T3 sequence (P42336 whole entry): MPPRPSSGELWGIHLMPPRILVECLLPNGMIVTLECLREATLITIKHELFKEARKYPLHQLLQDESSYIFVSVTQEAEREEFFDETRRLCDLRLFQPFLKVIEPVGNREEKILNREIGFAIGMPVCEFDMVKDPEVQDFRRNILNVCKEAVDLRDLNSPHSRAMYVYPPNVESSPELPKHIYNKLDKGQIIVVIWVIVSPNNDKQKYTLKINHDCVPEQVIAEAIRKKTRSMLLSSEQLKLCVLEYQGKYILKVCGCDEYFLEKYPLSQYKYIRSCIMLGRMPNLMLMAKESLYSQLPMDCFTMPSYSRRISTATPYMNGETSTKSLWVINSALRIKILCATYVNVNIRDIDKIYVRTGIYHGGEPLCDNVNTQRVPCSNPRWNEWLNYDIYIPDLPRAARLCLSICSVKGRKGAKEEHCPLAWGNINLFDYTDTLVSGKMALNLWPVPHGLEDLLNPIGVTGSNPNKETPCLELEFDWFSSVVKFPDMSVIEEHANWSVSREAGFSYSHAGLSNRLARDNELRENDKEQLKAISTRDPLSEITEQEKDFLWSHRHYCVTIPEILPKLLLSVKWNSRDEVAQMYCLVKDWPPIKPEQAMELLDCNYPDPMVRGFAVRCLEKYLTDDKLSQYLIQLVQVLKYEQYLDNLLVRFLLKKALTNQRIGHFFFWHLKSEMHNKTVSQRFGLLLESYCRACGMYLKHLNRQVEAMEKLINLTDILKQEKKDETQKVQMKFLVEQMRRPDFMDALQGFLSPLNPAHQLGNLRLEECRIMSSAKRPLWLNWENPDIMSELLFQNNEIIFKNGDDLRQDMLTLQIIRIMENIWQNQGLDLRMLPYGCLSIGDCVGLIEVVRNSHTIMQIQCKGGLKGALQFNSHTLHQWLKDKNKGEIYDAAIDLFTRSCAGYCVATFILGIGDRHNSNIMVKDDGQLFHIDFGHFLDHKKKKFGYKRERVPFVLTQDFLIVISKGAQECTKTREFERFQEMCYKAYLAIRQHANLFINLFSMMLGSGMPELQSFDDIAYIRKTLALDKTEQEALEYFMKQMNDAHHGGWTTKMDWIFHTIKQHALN
T1 sequence (P42338 whole entry): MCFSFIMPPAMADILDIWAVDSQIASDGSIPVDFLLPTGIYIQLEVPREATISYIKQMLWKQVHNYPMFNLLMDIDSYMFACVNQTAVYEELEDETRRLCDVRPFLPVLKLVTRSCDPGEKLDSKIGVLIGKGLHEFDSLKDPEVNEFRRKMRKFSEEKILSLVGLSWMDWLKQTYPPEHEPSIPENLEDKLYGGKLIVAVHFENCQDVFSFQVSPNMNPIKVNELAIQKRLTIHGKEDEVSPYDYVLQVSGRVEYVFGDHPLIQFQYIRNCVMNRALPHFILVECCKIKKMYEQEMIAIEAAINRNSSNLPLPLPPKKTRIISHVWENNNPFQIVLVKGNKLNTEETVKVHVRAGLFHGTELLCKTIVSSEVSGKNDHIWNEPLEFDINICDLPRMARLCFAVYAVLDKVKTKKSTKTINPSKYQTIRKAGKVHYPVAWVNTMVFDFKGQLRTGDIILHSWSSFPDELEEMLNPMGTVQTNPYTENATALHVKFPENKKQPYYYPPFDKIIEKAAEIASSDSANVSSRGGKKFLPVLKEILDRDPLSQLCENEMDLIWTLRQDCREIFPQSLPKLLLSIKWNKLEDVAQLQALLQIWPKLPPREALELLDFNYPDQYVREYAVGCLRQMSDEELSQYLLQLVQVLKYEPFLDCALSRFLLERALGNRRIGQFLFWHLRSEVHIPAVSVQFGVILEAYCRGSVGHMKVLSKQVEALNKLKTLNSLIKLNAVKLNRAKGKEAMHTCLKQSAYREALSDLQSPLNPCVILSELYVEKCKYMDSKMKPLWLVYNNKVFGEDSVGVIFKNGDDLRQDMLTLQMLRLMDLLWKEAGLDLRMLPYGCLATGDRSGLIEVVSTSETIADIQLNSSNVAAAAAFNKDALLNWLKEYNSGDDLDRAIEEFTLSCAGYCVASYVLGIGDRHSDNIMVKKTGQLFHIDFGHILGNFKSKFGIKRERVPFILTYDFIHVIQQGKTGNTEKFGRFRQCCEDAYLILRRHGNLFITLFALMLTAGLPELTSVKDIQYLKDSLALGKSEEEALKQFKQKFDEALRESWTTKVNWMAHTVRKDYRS

CNCCOCCN(C)C(=O)c1cc(C(C)Nc2cc(F)c(F)c(F)c2)c2nc(N3CCOCC3)cnc2c1 (single isomer, unassigned) [Compound 315b]
Kd [1]: 1 nM | Kd [2]: 162 nM | Kd [3]: 2750 nM | Kd [4]: > 30200 nM | Kd [5]: 5490 nM | IC50 [6]: ~110 nM | IC50 [7]: ~85 nM | melting point: 90 °C

CC(Nc1cccc(F)c1)c1cc(C(=O)N2CCC[C@H](O)C2)cc2ncc(N3CCOCC3)nc12 (single isomer, unassigned) [Compound 320a]
Kd [1]: 2 nM | Kd [2]: 182 nM | Kd [3]: 513 nM | Kd [4]: > 30200 nM | Kd [5]: 4470 nM | IC50 ([6]; Homo sapiens, PC-3, 1 h): 20 nM | IC50 ([7]; Homo sapiens, PC-3, 1 h): 17 nM | melting point: 110 °C

CC(Nc1cccc(F)c1)c1cc(C(=O)N2CC[C@@H](O)C2)cc2ncc(N3CCOCC3)nc12 (single isomer, unassigned) [Compound 321a]
Kd [1]: 1 nM | Kd [2]: 174 nM | Kd [3]: 832 nM | Kd [4]: > 30200 nM | Kd [5]: 4680 nM | IC50 ([6]; Homo sapiens, PC-3, 1 h): 18 nM | IC50 ([7]; Homo sapiens, PC-3, 1 h): 8 nM | melting point: 118 °C

CC(Nc1ccc(F)c(F)c1)c1cc(C(=O)NCC2CCCN2)cc2ncc(N3CCOCC3)nc12 (single isomer, unassigned) [Compound 329a]
Kd [1]: 0.1 nM | Kd [2]: 26 nM | Kd [3]: 339 nM | Kd [4]: 22900 nM | Kd [5]: 2750 nM | IC50 [6]: 14 nM | IC50 [7]: 6 nM | melting point: 121 °C

CC(Nc1ccc(F)c(F)c1)c1cc(C(=O)NCC2CCCN2)cc2ncc(N3CCOCC3)nc12 (single isomer, unassigned) [Compound 329b]
Kd [1]: 42 nM | Kd [2]: 1780 nM | Kd [3]: 6030 nM | Kd [4]: 22900 nM | Kd [5]: 6310 nM | IC50 [6]: > 513 nM | IC50 [7]: > 513 nM | melting point: 124 °C

CC(Oc1cccc(F)c1)c1cc(C(=O)NCCO)cc2ncc(N3CCOCC3)nc12 (single isomer, unassigned) [Compound 334a]
Kd [1]: 19 nM | Kd [2]: 1070 nM | Kd [3]: 5370 nM | Kd [4]: 26900 nM | Kd [5]: 12900 nM | IC50 ([6]; Homo sapiens, PC-3, 1 h): 339 nM | IC50 [7]: 219 nM | melting point: 136 °C

CC(Oc1cccc(F)c1)c1cc(C(=O)NCCO)cc2ncc(N3CCOCC3)nc12 (single isomer, unassigned) [Compound 334b]
Kd [1]: 457 nM | Kd [2]: 7590 nM | Kd [3]: 21400 nM | Kd [4]: 17400 nM | Kd [5]: 11000 nM | IC50 [6]: > 513 nM | IC50 [7]: > 513 nM | melting point: 134 °C

CNCCN(C)C(=O)c1cc(C(C)Nc2cc(F)c(F)c(F)c2)c2nc(N3CCOCC3)cnc2c1 (single isomer, unassigned) [Compound 335b]
Kd [1]: 11 nM | Kd [2]: 3420 nM | Kd [3]: 8320 nM | Kd [4]: > 30200 nM | Kd [5]: 13500 nM | IC50 [6]: 188 nM | IC50 [7]: 207 nM | melting point: 80 °C

CC(Nc1cccc(F)c1)c1cc(C(=O)NC[C@@H](C)O)cc2ncc(N3CCOCC3)nc12 (single isomer, unassigned) [Compound 338a]
Kd [1]: 11 nM | Kd [2]: 1070 nM | Kd [3]: 1510 nM | Kd [4]: 25700 nM | Kd [5]: 7240 nM | IC50 [6]: 115 nM | IC50 [7]: 68 nM | melting point: 89.8 °C

CC(Nc1cccc(F)c1)c1cc(C(=O)NC[C@@H](C)O)cc2ncc(N3CCOCC3)nc12 (single isomer, unassigned) [Compound 338b]
Kd [1]: 851 nM | Kd [2]: > 30200 nM | Kd [3]: 22900 nM | Kd [4]: 20000 nM | Kd [5]: 2340 nM | IC50 [6]: > 513 nM | IC50 [7]: > 513 nM | melting point: 90.8 °C

CNCCNC(=O)c1cc(C(C)Oc2ccc(F)c(F)c2)c2nc(N3CCOCC3)cnc2c1 (single isomer, unassigned) [Compound 344a]
Kd [1]: 2 nM | Kd [2]: 288 nM | Kd [3]: 2140 nM | Kd [4]: > 30200 nM | Kd [5]: 8320 nM | IC50 [6]: > 102 nM | IC50 [7]: 56 nM | melting point: 75 °C

CNCCOCCN(C)C(=O)c1cc(C(C)Nc2ccc(F)c(F)c2)c2nc(N3CCOCC3)cnc2c1 (single isomer, unassigned) [Compound 345a]
Kd [1]: 2 nM | Kd [2]: 282 nM | Kd [3]: 4370 nM | Kd [4]: > 30200 nM | Kd [5]: 14800 nM | IC50 [6]: 79 nM | IC50 [7]: 28 nM | melting point: 80 °C

CC(Nc1ccc(F)c(F)c1)c1cc(C(=O)NC[C@@H](C)O)cc2ncc(N3CCOCC3)nc12 (single isomer, unassigned) [Compound 346a]
Kd [1]: 3 nM | Kd [2]: 955 nM | Kd [3]: 2510 nM | Kd [4]: 30900 nM | Kd [5]: 9550 nM | IC50 [6]: 178 nM | IC50 [7]: 68 nM | melting point: 107 °C

CC(Nc1ccc(F)c(F)c1)c1cc(C(=O)NC[C@@H](C)O)cc2ncc(N3CCOCC3)nc12 (single isomer, unassigned) [Compound 346b]
Kd [1]: 741 nM | Kd [2]: 20900 nM | Kd [3]: 23400 nM | Kd [4]: > 30200 nM | Kd [5]: 2750 nM | IC50 [6]: > 513 nM | IC50 [7]: > 513 nM | melting point: 106 °C

CC(Nc1ccc(F)c(F)c1)c1cc(C(=O)N2CCN3CCC[C@@H]3C2)cc2ncc(N3CCOCC3)nc12 (single isomer, unassigned) [Compound 347a]
Kd [1]: 2690 nM | Kd [2]: > 30200 nM | Kd [3]: > 30200 nM | Kd [4]: > 30200 nM | Kd [5]: > 30200 nM | IC50 ([6]; Homo sapiens, PC-3, 1 h): > 513 nM | IC50 ([7]; Homo sapiens, PC-3, 1 h): > 513 nM | melting point: 125 °C

CC(Nc1ccc(F)c(F)c1)c1cc(C(=O)NCC(C)(C)O)cc2ncc(N3CCOCC3)nc12 (single isomer, unassigned) [Compound 348a]
Kd [1]: 10 nM | Kd [2]: 912 nM | Kd [3]: 3020 nM | Kd [4]: > 30200 nM | Kd [5]: 29500 nM | IC50 ([6]; Homo sapiens, PC-3, 1 h): 288 nM | IC50 [7]: 138 nM | melting point: 102 °C

CC(Nc1ccc(F)c(F)c1)c1cc(C(=O)N(C)CCN(C)C)cc2ncc(N3CCOCC3)nc12 (single isomer, unassigned) [Compound 349a]
Kd [1]: 0.2 nM | Kd [2]: 36 nM | Kd [3]: 813 nM | Kd [4]: > 30200 nM | Kd [5]: 4270 nM | IC50 [6]: 4 nM | IC50 [7]: 2 nM | melting point: 82 °C

CC(Nc1ccc(F)c(F)c1)c1cc(C(=O)N2C[C@@H](C)N[C@@H](C)C2)cc2ncc(N3CCOCC3)nc12 (single isomer, unassigned) [Compound 357a]
Kd [1]: 3310 nM | Kd [2]: 16200 nM | Kd [3]: 22900 nM | Kd [4]: > 30200 nM | Kd [5]: > 30200 nM | IC50 ([6]; Homo sapiens, PC-3, 1 h): > 513 nM | IC50 ([7]; Homo sapiens, PC-3, 1 h): > 513 nM | melting point: 116 °C

CC(Oc1ccc(F)c(F)c1)c1cc(C(=O)N2CC[C@H](N(C)C)C2)cc2ncc(N3CCOCC3)nc12 (single isomer, unassigned) [Compound 363a]
Kd [1]: 10 nM | Kd [2]: 417 nM | Kd [3]: 11000 nM | Kd [4]: > 30200 nM | Kd [5]: 26900 nM | IC50 ([6]; Homo sapiens, PC-3, 1 h): ~126 nM | IC50 ([7]; Homo sapiens, PC-3, 1 h): 74 nM | melting point: 80 °C

CC(Oc1ccc(F)c(F)c1)c1cc(C(=O)N2CCN3CCC[C@H]3C2)cc2ncc(N3CCOCC3)nc12 (single isomer, unassigned) [Compound 369b]
Kd [1]: 3310 nM | Kd [2]: 28800 nM | Kd [3]: > 30200 nM | Kd [4]: > 30200 nM | Kd [5]: > 30200 nM | IC50 [6]: > 513 nM | IC50 [7]: > 513 nM | melting point: 147 °C
